Results as given in US20150110853A1, “TREATMENT OF RADICAL PROSTATECTOMY-INDUCED ERECTILE DYSFUNCTION” (PANACEA PHARMACEUTICALS, priority 2013, published 2015).

Columns and labels:
[1] = tested on: veratridine-induced sodium channel opening; assay: veratridine-induced sodium channel opening and related cell death; assay type: cell-based
Procedure: (§1) PAN-811 was originally developed for cancer therapy due to its ability to inhibit ribonucleotide reductase, a key enzyme required for DNA synthesis. […] PAN-811 was administered intracerebroventricularly (i.c.v.) at a dose of 50 μg per rat at 1 h after arterial occlusion. […] The effect of a single intravenous (i. v.) bolus injection of PAN-811 was also investigated. […] Mechanistically PAN-811 prevents glutamate-induced excitatory cytotoxicity, veratridine-induced sodium channel opening and related cell death, and staurosporine-induced apoptosis. […] In culture, ischemic condition results in a 19-fold increase in intracellular free calcium. PAN-811 at a dose of 5 μM reduced this elevated level by 72%. […] In addition, PAN-811 effectively suppresses oxidative stress in many ways. […] Importantly, PAN-811 manifested as a free radical scavenger in a cell free system where PAN-811 reduced 500 μM of a stable free radical diphenylpicrylhydrazyl by 70%. Taken together, PAN-811 has manifested as a potent neuroprotectant with dual drug targets—oxidative stress and free calcium.

[2] = tested on: hypoxia-induced neuronal cell death; details: 1.2μM; cited from earlier work
[3] = tested on: human Alzheimer's disease-derived and age-matched olfactory neuroepithelial cells; assay: oxidative stress-induced cell death of olfactory neuroepithelial cells; assay type: cell-based; details: via suppression of intracellular reactive oxygen species
Procedure: as §1

[4] = tested on: ischemic neurodegeneration; details: 0.45 μM; cited from earlier work
ribonucleotide reductase = target: T1, ribonucleotide reductase (Homo sapiens, UniProt P31350); details: cited from earlier work
T1 sequence (P31350 1-389): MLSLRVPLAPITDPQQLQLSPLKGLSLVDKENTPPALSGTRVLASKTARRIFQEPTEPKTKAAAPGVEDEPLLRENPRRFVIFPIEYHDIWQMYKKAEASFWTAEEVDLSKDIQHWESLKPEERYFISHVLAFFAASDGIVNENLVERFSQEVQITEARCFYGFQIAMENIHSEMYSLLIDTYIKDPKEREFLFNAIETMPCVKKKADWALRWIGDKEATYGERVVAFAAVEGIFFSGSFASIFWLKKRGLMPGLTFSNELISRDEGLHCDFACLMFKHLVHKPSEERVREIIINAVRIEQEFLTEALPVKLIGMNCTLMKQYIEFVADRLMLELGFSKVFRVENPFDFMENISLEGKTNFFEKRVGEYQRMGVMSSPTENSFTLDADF
T1 sequence (P23921 1-792 partner): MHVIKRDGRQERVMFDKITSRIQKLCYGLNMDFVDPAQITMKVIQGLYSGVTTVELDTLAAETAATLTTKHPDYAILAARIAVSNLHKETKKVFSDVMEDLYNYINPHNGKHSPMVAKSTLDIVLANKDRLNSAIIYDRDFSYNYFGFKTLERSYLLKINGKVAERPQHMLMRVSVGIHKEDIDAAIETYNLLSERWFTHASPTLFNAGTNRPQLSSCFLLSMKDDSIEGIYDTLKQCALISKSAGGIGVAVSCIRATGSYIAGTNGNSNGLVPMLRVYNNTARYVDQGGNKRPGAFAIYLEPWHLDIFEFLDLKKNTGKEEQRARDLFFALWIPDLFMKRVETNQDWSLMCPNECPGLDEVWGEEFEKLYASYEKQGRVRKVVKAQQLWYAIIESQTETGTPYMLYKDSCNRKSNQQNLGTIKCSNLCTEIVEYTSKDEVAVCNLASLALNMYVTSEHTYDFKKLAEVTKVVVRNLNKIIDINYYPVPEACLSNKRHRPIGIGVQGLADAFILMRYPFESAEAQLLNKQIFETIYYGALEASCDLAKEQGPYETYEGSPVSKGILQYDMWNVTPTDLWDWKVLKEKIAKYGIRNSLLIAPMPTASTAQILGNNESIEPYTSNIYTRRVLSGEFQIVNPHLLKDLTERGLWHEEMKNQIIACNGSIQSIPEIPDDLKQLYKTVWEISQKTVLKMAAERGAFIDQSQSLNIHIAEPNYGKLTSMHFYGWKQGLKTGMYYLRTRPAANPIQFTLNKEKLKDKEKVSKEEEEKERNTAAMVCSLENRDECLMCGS

cultured neuronal cells = assay type: cell-based
Procedure: as §1

[5] = tested on: staurosporine-induced apoptosis; assay: staurosporine-induced apoptosis; assay type: cell-based
Procedure: as §1

For `NC(=S)N/N=C/c1ncccc1N` [PAN-811, 3-aminopyridine-2-carboxaldehyde thiosemicarbazone], the “prevention of veratridine-induced sodium channel opening and related cell death” value [1] is listed as “prevents”, the “halt of hypoxia-induced neuronal cell death” value [2] is listed as “completely halted” and the “inhibition of oxidative stress-induced cell death” value [3] is listed as “inhibited”. For the same compound, the “block of ischemic neurodegeneration” value [4] was “fully blocked”, the “inhibition of ribonucleotide reductase” value (ribonucleotide reductase) was “inhibit” and the “prevention of glutamate-induced excitatory cytotoxicity” value (cultured neuronal cells) was “prevents”. The “prevention of staurosporine-induced apoptosis” value [5] was “prevents”.
